Consider 34 compounds from patent publication US6469010B1, “Medicament for the alleviation or treatment of symptom derived from the ischemic disease and compound useful thereof” (Suntory Limited, priority 1995, dated 2002).

For assay [1], the system named is Na+ channel. In words: Veratridine-induced sodium channel activity inhibiting action (membrane potential of synaptosomes, Rhodamine 6G). Particulars: 0.1 μM of compound; rat brain synaptosomes, veratridine-induced depolarization. The class given is biochemical, Wistar rats. As to the method:
Veratridine-induced Sodium Channel Activity Inhibiting Action
The membrane potential of the synaptosomes prepared from the brain membrane of Wistar rats (male, 10 to 12 weeks old) was measured by the method of Aiuchi et al. [T. Aiuchi et al: Biochimi. Biophys. Acta.

For assay [2], the system named is DBA/2N mice. In words: Audiogenic seizure suppressing action. The class given is in vivo. Particulars: Mus musculus, ip, 20 min; compound 10 mg/kg, i.p.; audio stimulus after 20 minutes; suppression of average seizure score; read-out: Antiseizure action (suppression rate %). As to the method: Audiogenic Seizure Suppressing Action
The audiogenic seizure suppressing action of the compounds was evaluated by the method of Sarro et al. [G. B. De Sarro et al.; Br. J. Pharmacol., 93, 247 (1988)]. That is, DBA/2N mice (male, 3 weeks) were administered with the compound dissolved in 10% 2-hydroxypropyl-β-cyclodextrin intraperitoneally. After 20 minutes, a supersonic washer was used to apply audio stimulus of at least 90 dB for one minute. The wild running (WR), clonic seizures (clonus), tonic seizures (tonus), and respiratory arrest (RA) were evaluated. The seizure suppressing action was evaluated from the rate or suppression of the average value of the seizure score found from 0=no response, 1=WR, 2=clonus, 3=tonus, and 4=RA.

`C1=C(c2ccc(Oc3ccccc3)cc2)CCN(C/C=C/c2ccccc2)C1` [Compound 18, (E)-4-(4-phenoxyphenyl)-1-(3-phenyl-2-propenyl)-1,2,3,6-tetrahydropyridine]: the “Antiveratridine action (inhibiting rate %)” value in assay [1] was 16%. In assay [2], the inhibition in vivo at 10 mg/kg was 27.9%.
`COc1cc(/C=C/CN2CCC(c3ccc(Oc4ccccc4)cc3)CC2)ccc1O` [Compound 19, (E)-1-[3-(4-hydroxy-3-methoxyphenyl)-2-propenyl]-4-(4-phenoxyphenyl)piperidine]: in assay [1], the “Antiveratridine action (inhibiting rate %)” value is reported as 26.1%. Moreover, in assay [2], the inhibition in vivo at 10 mg/kg was 53.6%.
As to `c1ccc(CCCN2CCC(c3ccc(Oc4ccccc4)cc3)CC2)cc1` [Compound 22, 4-(4-phenoxyphenyl)-1-(3-phenylpropyl)piperidine], the inhibition in vivo at 10 mg/kg in assay [2] is 85.7%.
Still for that read-out and setting: in the case of `COc1cc(/C=C/CN2CC=C(c3ccc(Oc4ccccc4)cc3)CC2)ccc1O` [Compound 24, (E)-1-[3-(4-hydroxy-3-methoxyphenyl)-2-propenyl]-4-(4-phenoxyphenyl)-1,2,3,6-tetrahydropyridine] it was 49.1%.
With `Fc1ccc(/C=C/CN2CCC(c3ccc(Oc4ccccc4)cc3)CC2)cc1` [Compound 25, (E)-1-[3-(4-fluorophenyl)-2-propenyl]-4-(4-phenoxyphenyl)piperidine], the inhibition in vivo at 10 mg/kg in assay [2] turned out to be 72%.
`Fc1ccc(OCCN2CCC(c3ccc(Oc4ccccc4)cc3)CC2)cc1` [Compound 27, 1-[2-(4-fluorophenyl)oxyethyl]-4-(4-phenoxyphenyl)piperidine]: in assay [2], the inhibition in vivo at 10 mg/kg amounted to 34%.
For the compound `Fc1ccc(OCCCCN2CCC(c3ccc(Oc4ccccc4)cc3)CC2)cc1` [Compound 28, 1-[4-(4-fluorophenyl)-oxybutyl]-4-(4-phenoxyphenyl)piperidine], in assay [1], the “Antiveratridine action (inhibiting rate %)” value is listed as 38%. In assay [2], the inhibition in vivo at 10 mg/kg amounted to 56.9%.
Take `COc1ccc(CN2CCC(c3ccc(Oc4ccccc4)cc3)CC2)c(OC)c1OC` [Compound 29, 4-(4-phenoxyphenyl)-1-[(2,3,4-trimethoxyphenyl)methyl]piperidine]: the “Antiveratridine action (inhibiting rate %)” value in assay [1] amounted to 9.9%. Also, in assay [2], the inhibition in vivo at 10 mg/kg was 66.2%.
Take `Fc1ccc(Cc2ccc(C3=CCN(C/C=C/c4ccccc4)CC3)cc2)cc1` [Compound 31, (E)-4-[4-(4-fluorophenyl)-methylphenyl]-1-(3-phenyl-2-propenyl)-1,2,3,6-tetrahydropyridine]: in assay [2], the inhibition in vivo at 10 mg/kg was found to be 48%.
Take `Fc1ccc(Cc2ccccc2C2=CCN(C/C=C/c3ccccc3)CC2)cc1` [Compound 34, (E)-4-[2-(4-fluorophenyl)methylphenyl]-1-(3-phenyl-2-propenyl)-1,2,3,6-tetrahydropyridine]: the inhibition in vivo at 10 mg/kg in assay [2] was 34%.
Take `Fc1ccc(OCCCCN2CCN(c3ccc(Oc4ccccc4)cc3)CC2)cc1` [Compound 41, 4-[4-(4-fluorophenyl)-oxybutyl]-1-(4-phenoxyphenyl)piperazine]: the “Antiveratridine action (inhibiting rate %)” value in assay [1] amounted to 20.8%. The inhibition in vivo at 10 mg/kg in assay [2] is 42.7%.
For `C(=C\c1ccccc1)/CN1CCN(c2ccccc2Oc2ccccc2)CC1` [Compound 42, (E)-1-(2-phenoxyphenyl)-4-(3-phenyl-2-propenyl)piperazine], the inhibition in vivo at 10 mg/kg in assay [2] was 60%.
Regarding `COc1ccc(CN2CCN(c3ccc(Oc4ccccc4)cc3)CC2)c(OC)c1OC` [Compound 46, 1-(4-phenoxyphenyl)-4-[(2,3,4-trimethoxyphenyl)methyl]piperazine], in assay [1], the “Antiveratridine action (inhibiting rate %)” value is reported as 11.7%. In assay [2], the inhibition in vivo at 10 mg/kg came out at 27.9%.
`COc1ccc(/C=C/CN2CCN(c3ccc(Cc4ccc(F)cc4)cc3)CC2)c(OC)c1OC` [Compound 48, (E)-1-[4-(4-fluorophenyl)-methylphenyl]-1-[3-(2,3,4-trimethoxyphenyl)-2-propenyl]-piperazine]: the “Antiveratridine action (inhibiting rate %)” value in assay [1] was found to be 20.5%. The inhibition in vivo at 10 mg/kg in assay [2] was found to be 53.6%.
Regarding `C(=C\c1ccccc1)/CN1CCN(c2ccccc2Cc2ccccc2)CC1` [Compound 51, (E)-1-(2-benzylphenyl)-4-(3-phenyl-2-propenyl)piperazine], the inhibition in vivo at 10 mg/kg in assay [2] stood at 71.4%.
In the case of `c1ccc(Cc2ccccc2N2CCN(CC3CC3c3ccccc3)CC2)cc1` (stereo not drawn) [Compound 52, (E)-1-(2-benzylphenyl)-4-[trans-(2-phenyl)cyclopropylmethyl]piperazine], the inhibition in vivo at 10 mg/kg in assay [2] came out at 20%.
Still for that read-out and setting: the result for `Fc1ccc(Cc2ccc(N3CCN(CC4CC4c4ccccc4)CC3)cc2)cc1` (stereo not drawn) [Compound 55, (E)-1-[4-(4-fluorophenyl)-methylphenyl]-4-[trans-(2-phenyl)cyclopropylmethyl]-piperazine] reads 62%; that for `COc1ccc(CN2CCN(c3ccc(Cc4ccc(F)cc4)cc3)CC2)c(OC)c1OC` [Compound 56, 1-[4-(4-fluorophenyl)-methylphenyl]-4-[(2,3,4-trimethoxyphenyl)methyl]piperazine], 50%.
`Fc1ccc(Cc2ccc(N3CCN(CCCCOc4ccc(F)cc4)CC3)cc2)cc1` [Compound 57, 4-[4-(4-fluorophenyl)-oxybutyl]-1-[4-(4-fluorophenyl)methylphenyl]pinerazine]: the “Antiveratridine action (inhibiting rate %)” value in assay [1] was 25%.
In the case of `O=C(CCCN1CCN(c2ccc(Cc3ccc(F)cc3)cc2)CC1)c1ccc(F)cc1` [Compound 58, 1-[4-(4-fluorophenyl)methylphenyl]-4-[4-((4-fluorophenyl)-4-oxo)butyl]-piperazine], the “Antiveratridine action (inhibiting rate %)” value in assay [1] was determined as 33.9%. The inhibition in vivo at 10 mg/kg in assay [2] amounted to 66%.
Taken in the same sequence, the figures for `Fc1ccc(Cc2ccc(C3CCN(CC4(c5ccccc5)CC4)CC3)cc2)cc1` [Compound 62, 4-[4-(4-fluorophenyl)-methylphenyl]-1-(1-phenyl-1-cyclopropane)methyl-piperidine] were 23.9% and 44%.
`O=C(CN1CCC(c2ccc(Cc3ccc(F)cc3)cc2)CC1)c1ccccc1` [Compound 63, 4-[4-(4-fluorophenyl)methylphenyl]-1-(2-phenyl-2-oxo)ethylpiperidine]: in assay [1], the “Antiveratridine action (inhibiting rate %)” value amounted to 31.1%. Besides, the inhibition in vivo at 10 mg/kg in assay [2] turned out to be 76%.
On the same counts, the results for `O=C(CN1CCC(c2ccc(Oc3ccccc3)cc2)CC1)c1ccccc1` [Compound 64, 4-(4-phenoxyphenyl)-1-(2-phenyl-2-oxo)ethylpiperidine] are 34.5% and 94%.
In the case of `COc1ccc(C(=O)CN2CCC(c3ccc(Oc4ccccc4)cc3)CC2)cc1` [Compound 66, 1-[2-(4-methoxyphenyl)-2-oxo]ethyl-4-(4-phenoxyphenyl)piperidine], the “Antiveratridine action (inhibiting rate %)” value in assay [1] came to 19.6%. Moreover, the inhibition in vivo at 10 mg/kg in assay [2] came to 39.2%.
Turning to `O=C(CN1CCC(c2ccc(Oc3ccccc3)cc2)CC1)c1ccc(F)cc1` [Compound 67, 1-[2-(4-fluorophenyl)-2-oxo]ethyl-4-(4-phenoxyphenyl)piperidine], in assay [1], the “Antiveratridine action (inhibiting rate %)” value stood at 15%. In addition, the inhibition in vivo at 10 mg/kg in assay [2] came out at 37%.
In the case of `O=C(CN1CCC(c2ccc(Oc3ccccc3)cc2)CC1)c1ccc(Cl)cc1` [Compound 68, 1-[2-(4-chlorophenyl)-2-oxo]ethyl-4-(4-phenoxyphenyl]piperidine], the “Antiveratridine action (inhibiting rate %)” value in assay [1] was 38.9%.
In the case of `CC(C(=O)c1ccccc1)N1CCC(c2ccc(Oc3ccccc3)cc2)CC1` (centres unmarked) [Compound 69, 1-(1-benzoylethyl)-4-(4-phenoxyphenyl)piperidine], the “Antiveratridine action (inhibiting rate %)” value in assay [1] turned out to be 11.2%. Besides, the inhibition in vivo at 10 mg/kg in assay [2] was found to be 64.7%.
On to `COc1ccc(Cc2ccc(C3CCN(CC(=O)c4ccccc4)CC3)cc2)cc1` [Compound 70, 4-[4-(4-methoxyphenyl)methylphenyl]-1-(2-phenyl-2-oxo)ethylpiperidine], for which the inhibition in vivo at 10 mg/kg in assay [2] worked out at 73.9%.
The same measure, in the same setting: in the case of `O=C1c2ccccc2CC1N1CCC(c2ccc(Oc3ccccc3)cc2)CC1` (centres unmarked) [Compound 71, 1-(1-oxoindan-2-yl)-4-(4-phenoxy)phenylpiperidine] it was 32%.
In the case of `ON=C(CN1CCC(c2ccc(Oc3ccccc3)cc2)CC1)c1ccccc1` [Compound 74, 4-(4-phenoxyphenyl)-1-(2-phenyl-2-hydroxyimino)ethylpiperidine], the “Antiveratridine action (inhibiting rate %)” value in assay [1] worked out at 14.6%. For the same compound, the inhibition in vivo at 10 mg/kg in assay [2] turned out to be 44.4%.
Taken in the same sequence, the figures for `OC(CN1CCC(c2ccc(Oc3ccccc3)cc2)CC1)c1ccccc1` (centres unmarked) [Compound 77, 1-(2-hydroxy-2-phenyl)-ethyl-4-(4-phenoxyphenyl)piperidine] were 31.1% and 85.7%.
For the compound `OC(CN1CCC(c2ccc(Oc3ccccc3)cc2)CC1)c1ccc(Cl)cc1` (centres unmarked) [Compound 78, 1-[2-(4-chlorophenyl)-2-hydroxy]ethyl-4-(4-phenoxyphenyl)piperidine], the “Antiveratridine action (inhibiting rate %)” value in assay [1] turned out to be 44.4%. For the same compound, the inhibition in vivo at 10 mg/kg in assay [2] is 66%.
As to `OC(COc1ccccc1)CN1CCC(c2ccc(Cc3ccc(F)cc3)cc2)CC1` (centres unmarked) [Compound 81, 4-[4-(4-fluorophenyl)methylphenyl]-1-(2-hydroxy-3-phenoxy)propylpiperidine], the “Antiveratridine action (inhibiting rate %)” value in assay [1] stood at 24.1%. Besides, in assay [2], the inhibition in vivo at 10 mg/kg stood at 61%.
Taken in the same sequence, the figures for `O=C(CN1CCN(c2ccc(Cc3ccc(F)cc3)cc2)CC1)c1ccccc1` [Compound 82, 1-[4-(4-fluorophenyl)methylphenyl]-4-(2-phenyl-2-oxo)ethylpiperazine] were 16.9% and 71.9%.
